Measured values reported in article PMC4798226, “Streptococcus pneumoniae Cell-Wall-Localized Phosphoenolpyruvate Protein Phosphotransferase Can Function as an Adhesin: Identification of Its Host Target Molecules and Evaluation of Its Potential as a Vaccine” (PLoS ONE, 2016).
Ends that are not written are not given here.

Assays:
[1] = molecular target: rPtsA (Streptococcus pneumoniae serotype 4, UniProt A0A0H2UQ90); assay: biochemical; format: binding
Description: In all cases, 16 serial dilutions of each putative receptor-derived peptide (~90 nM–3.175 mM) were mixed with a constant concentration of 335 nM labeled rPtsA protein. The normalized change in the fluorescence of the labeled rPtsA protein was plotted against the peptide concentration, and a fit was computed by the NTP program. The experiments were performed in triplicate.
rPtsA labeled with fluorescent NT-495 dye at a constant concentration of 335 nM was mixed with sixteen serial dilutions (~90 nM–3.175 mM) of peptides derived from PCDH19, MMRN1, Eps1, Int β and BMPER. Contactin 4, was used as a negative control. MST analysis was performed using Monolith NT.115 (NanoTemper Technologies GmbH, München, Germany). The normalized change in the fluorescence of bound and unbound labeled rPtsA (ΔF) is indicative of the peptide binding. Plotting ΔF vs. peptide concentration facilitated the generation the dissociation curves, computed by the NTP program. In this way the Kd, reflecting the affinity of each of the peptides for rPtsA, was obtained. […] Each experiment was performed in triplicate.

[2] = test system: S. pneumoniae strain WU2 adhesion to A549 cells; assay: Inhibition of adhesion of S. pneumoniae strain WU2 to A549 cells; format: cell-based, Streptococcus pneumoniae; conditions: CFU counting
Description: (§1) A549 and D562 cells were cultured on fibronectin-coated 96-well plates (Fig 2 and S2 Fig) or on Ibidi 8 well chambers (Ibidi GmbH, Planegg/Martinsried, Germany; Figs 3, 4 and 5) or on 96-well plates without fibronectin coating (Figs 7 and 8 and S3 Fig), as previously described. Briefly, the cells were seeded at 5 × 10^4 cells/well in DMEM supplemented with 10% fetal calf serum (FCS) (without antibiotics). Twenty four hours later, the cells (~10^5 cells/well) were blocked with 0.5% gelatin for 1 h. rPtsA (0–500 nM) was then added to the cultured cells for 1 h of incubation. Excess protein was removed, and S. pneumoniae bacteria at a MOI of ~10:1 were added for additional 1 h of incubation. The inoculum size was verified in each experiment. […] Following the incubation, excess bacteria were removed, and cells were detached with trypsin and plated onto blood agar plates for counting. All the inhibitors were used at concentrations below their toxic concentrations either to the bacteria or to the cells. Keyhole limpet hemocyanin (KLH) protein was used as a negative control. Experiments were conducted in triplicates and repeated on 3 different occasions.
(§2) Inhibition of adhesion to A549 cells by anti-rPtsA antiserum, phages or peptides was performed as previously described. Briefly, bacteria were incubated for 1 h with rabbit anti-rPtsA antiserum, the phages, or the selected peptides. The bacteria were then added to the cultured human cells for an additional hour. Following this incubation, excess bacteria were removed, and the procedure was continued as described above. All the inhibitors were used at concentrations below their toxic concentrations either to the bacteria or to the cells. Negative controls included pre-immune serum, phage carrying no insert or a non-inhibitory insert, and a scrambled peptide. Each experiment was performed in triplicates and repeated on 3 different occasions and a representative experiment is presented.

[3] = test system: S. pneumoniae strain 3.8DW adhesion to A549 cells; assay: Inhibition of adhesion of S. pneumoniae strain 3.8DW to A549 cells; format: cell-based, Streptococcus pneumoniae; conditions: bacteria treated 1 h with peptide, added to A549 cells (plates without fibronectin coating) for 1 h; CFU counting
Description: as §1, §2

[4] = test system: S. pneumoniae strain D39 adhesion to A549 cells; assay: Inhibition of adhesion of S. pneumoniae strain D39 to A549 cells; format: cell-based, Streptococcus pneumoniae; conditions: bacteria treated 1 h with peptide, added to A549 cells (plates without fibronectin coating) for 1 h; CFU counting
Description: as §1
(§3) Inhibition of adhesion to A549 cells by anti-rPtsA antiserum, phages or peptides was performed as previously described. Briefly, bacteria were incubated for 1 h with rabbit anti-rPtsA antiserum, the phages, or the selected peptides. […]

[5] = test system: S. pneumoniae strain R6 adhesion to A549 cells; assay: Inhibition of adhesion of S. pneumoniae strain R6 to A549 cells; format: cell-based, Streptococcus pneumoniae; conditions: bacteria treated 1 h with peptide, added to A549 cells (plates without fibronectin coating) for 1 h; CFU counting
Description: as §1, §3

[6] = test system: S. pneumoniae strain WU2 adhesion to Detroit 562 cells; assay: Inhibition of adhesion of S. pneumoniae strain WU2 to Detroit 562 cells; format: cell-based, Streptococcus pneumoniae; conditions: bacteria treated 1 h with peptide, added to Detroit 562 cells for 2 h; CFU counting; 3–6 replicates
[7] = test system: S. pneumoniae strain WU2; assay: Nasopharyngeal and lung colonization of CBA/N^xid mice after intranasal inoculation of peptide-pretreated strain WU2; format: in vivo, Streptococcus pneumoniae
Description: BALB/c (highly resistant to S. pneumonia) or CBA/N^xid (highly susceptible to S. pneumoniae) mice strains were immunized subcutaneously (SC) with 25 μg of rPtsA emulsified with complete Freund’s adjuvant (CFA) and subsequently boosted (days 14 and 28) with incomplete Freund’s adjuvant (IFA). On day 42, the BALB/c and CBA/N^xid mice were challenged intranasally (IN), under deep anesthesia using Isoflurane (Piramal Critical Care Inc., PA, USA), with a sublethal dose of strain WU2 (5 × 10^7 and 5 ×x 10^5, respectively). Mice were humanely sacrificed 3 and 24 h later by CO2 asphyxiation, as recommended by the AVMA Guidelines for Euthanasia in Animals: 2013 Edition (https://www.avma.org/KB/Policies/Documents/euthanasia.pdf). Strain WU2 cells were pretreated with the respective peptides and then inoculated IN into adult CBA/N^xid mice. Mice were euthanized 3, 24 or 48 h later with CO2. The nasopharynx and right lobe lung were excised, homogenized and plated onto blood agar plates for bacterial colony counting. For survival experiments, after an immunization regime similar to that described above, BALB/c or CBA/N^xid mice were challenged with a lethal dose of strain WU2 either IN (10^8 CFU and 10^6 CFU, respectively) or intravenously (10^4 CFU). […] The following criteria were considered sufficient evidence of distress to warrant such intervention in order to minimize pain and suffering of the animals: severe weight loss (20% body weight); reluctance or inability to move freely; appearance of bristle fur; social disengagement; refusal or inability to eat or drink. No analgesic treatment was provided, as such treatment may alter the immune response and may independently affect the outcome of the experiments.
Strain WU2 cells were pretreated with Eps 1, BMPER and PCDH19 peptides and then inoculated IN into adult CBA/N^xid mice. Mice were euthanized 3, 24 or 48 h later. The nasopharynx and lungs were excised, homogenized and plated onto blood agar plates for counting. As a control, another group of mice was injected with bacteria treated ex vivo for 1 h with PBS alone.
Fig 9 Effects of target-derived peptides on nasopharyngeal and lung colonization and survival in mice. Strain WU2 cells were pretreated with peptide and then inoculated IN into adult CBA/N^xid mice. As a control, another group of mice was injected with bacteria treated ex vivo for 1 h with PBS alone. Mice were euthanized 3, 24 or 48 h later. The nasopharynx and lungs were excised, homogenized and plated onto blood agar plates for counting. […]

[8] = test system: S. pneumoniae adhesion to A549 cells; assay: Inhibition of adhesion of S. pneumoniae to A549 cells, strain not stated (scrambled peptide control); format: cell-based, Streptococcus pneumoniae; conditions: bacteria treated 1 h with peptide, added to A549 cells for 1 h; CFU counting; strain not printed (Fig 8K)
Description: as §1
Fig 8 Inhibition of adhesion of S. pneumoniae cells to A549 cells by target-derived peptides. […]

[9] = molecular target: HAT-tagged recombinant phosphoenolpyruvate protein phosphotransferase (rPtsA) (Streptococcus pneumoniae (serotype 3 strain WU2)); assay: MST; labeled rPtsA (NT-495 dye) constant at 335 nM; 16 serial dilutions of each peptide (~90 nM–3.175 mM); Monolith NT.115; triplicate
[10] = bacteria incubated 1 h with antiserum or phage, then added to gelatin-blocked A549 cells (fibronectin-coated plates) for 1 h
[11] = bacteria treated 1 h with peptide, added to A549 cells (96-well plates without fibronectin coating) for 1 h
[12] = WU2 pretreated with Eps 1 (14.7 μM), versus sham-treated (PBS) bacteria
[13] = WU2 pretreated with peptide (Eps 1 14.7 μM; BMPER 7 and 14 μM; PCDH19 14.7 and 27.4 μM), versus sham-treated bacteria

DQVARIPVIRRV [Intβ4]
Kd [1]: 115 ± 20.5 µM

AVVVNDANRTRK [phage D3]
Inhibition of adhesion of strain WU2 to A549 cells [2, 10]: inhibited

TEQVSDQKNAPA [MMRN1]
Inhibition of adhesion of strain WU2 to A549 cells [2, 11]: significant inhibition | Inhibition of adhesion of strain 3.8DW to A549 cells [3]: significant inhibition

DQRPAXRRMYRA [phage D10]
Inhibition of adhesion of strain WU2 to A549 cells [2, 10]: inhibited

VVVSDATRVRVA [Col VII]
Inhibition of adhesion of strain WU2 to A549 cells [2, 11]: significant inhibition | Inhibition of adhesion of strain 3.8DW to A549 cells [3]: significant inhibition

ADDESPEMKPGX [phage D8]
Inhibition of adhesion of strain WU2 to A549 cells [2, 10]: inhibited

SDGGVPV [Eps 1]
Inhibition of adhesion of strain WU2 to A549 cells [2, 11]: significantly inhibited | Inhibition of adhesion of strain 3.8DW to A549 cells [3]: significantly inhibited | Inhibition of adhesion of strain D39 to A549 cells [4]: significantly inhibited | Inhibition of adhesion of strain R6 to A549 cells [5]: significantly inhibited | Inhibition of adhesion of strain WU2 to Detroit 562 cells [6]: significant inhibition | Bacterial load in the lungs, 3 h post inoculation [7, 12]: significant reduction | Bacterial load in the nasopharynx, 3 h post inoculation [7, 12]: significant reduction | Bacterial load in the lungs, 48 h post inoculation [7, 13]: significant reduction | Bacterial load in the nasopharynx, 48 h post inoculation [7, 13]: significant reduction

WECKANGRPKPTY [Contactin 4-derived peptide, reference compound]
Kd (affinity of rPtsA binding to peptide) ([1]; MST, Monolith NT.115, 335 nM NT-495-labeled rPtsA, 16 serial dilutions of peptide ~90 nM–3.175 mM, fit by NTP program, triplicate): a fit could not be generated

LDSIRIIVIRRI [phage H9]
Inhibition of adhesion of strain WU2 to A549 cells [2, 10]: inhibited

ADGGVPV [phage H10]
Inhibition of adhesion of strain WU2 to A549 cells [2, 10]: inhibited | Reduction in adhesion of strain WU2 to A549 cells ([2]; phage incubated with strain WU2 for 1 h, added to A549 cells, in comparison to adhesion of bacteria without inhibitors): 75%

VLVKNDARRTRS [BMPER]
Kd [1]: 21 ± 5.49 µM

TXQVSNHKNHTN [phage E6]
Inhibition of adhesion of strain WU2 to A549 cells [2, 10]: inhibited

LPADWATTLMVCSSK [scrambled peptide]
Inhibition of adhesion of S. pneumoniae to A549 cells [8]: No significant inhibition

B1: Int β4-derived peptide (peptide)
peptide: DQVARIPVIRRV
Kd [9]: 115 µM

B2: Eps 1-derived peptide (peptide)
peptide: SDGGVPV
Kd [9]: 43.9 µM

B3: MMRN1-derived peptide (peptide)
peptide: TEQVSDQKNAPA
Kd [9]: 391 µM

B4: PCDH19-derived peptide (peptide)
peptide: DGGVPML
Kd [9]: 58 µM

B5: BMPER-derived peptide (peptide)
peptide: VLVKNDARRTRS
Kd [9]: 21 µM
